Assay results as given in publication PMC5995184, “Potent anti-leukemic activity of a specific cyclin-dependent kinase 9 inhibitor in mouse models of chronic lymphocytic leukemia” (Oncotarget, 2018).

Experiments:
[1] = tested on: human CLL cells and human T cells in NSG spleens; assay: Human CLL xenograft in NSG mice, oral LDC526; format: in vivo, mouse; settings: for mean weight loss: 75 mg/kg group
Excerpt: We and others previously established human CLL xenograft models using NOD/SCID and NSG mice, respectively. We chose to use the NSG model for LDC526 experiments since NSG CLL and concomitant T cell engraftment levels are expected to be higher than in the NOD/SCID model. We intravenously injected PBMCs from n=6 CLL patients into n=57 NSG mice and commenced LDC treatment with a 14 day latency according to the experimental set-up outlined in Figure 3A. To study the effect of doses and treatment duration we chose to administer 50 and 75 mg/kg for three days (NSG transplanted with cells originating from n=3 patients) and for five days (NSG transplanted with cells originating from n=3 additional patients). On experimental days 17 and 21 NSG spleens were harvested and the content of human CLL and T cells was determined by cell counting and flow cytometry (Figure 3B). […] Compared to carrier control treatment, numbers of human CLL cells decreased after 3 and 5 days of LDC526 treatment, respectively. However, statistical significance regarding the reduction of human CLL cell numbers was only achieved at the LDC526 75 mg/kg dose level (Figure 3C). […] In order to determine whether there was differential in vivo LDC526 sensitivity of T cell subsets we performed additional staining for human CD4+ and CD8+ T cells present in the spleens of xenografted NSG mice (Figure 4A). […] In contrast, in mice transplanted with cells of n=2 other CLL patients and receiving LDC526 treatment for 5 days we observed a rising CD4/CD8 ratio with increasing LDC526 doses (Figure 4B). This could mean that CD8+ cytotoxic T cells are more susceptible to longer LDC526 exposure (5 versus 3 days) than CD4+ T cells. However, this differential skew within the T cell compartment could also reflect the heterogeneity of T cells derived from different CLL patients. […] A mean weight loss of 1.8% was detectable in mice of the LDC526 75 mg/kg group (day 16). […] Remarkably, human T cell numbers were already decreased at a lower dose level than human CLL cells.
All mice were bred and housed at the University Hospital Essen animal care facility. TCL1 mice were back-crossed more than 6 generations into the C57BL/6 background and were genotyped as previously described. Age-matched TCL1 wild-type littermates served as controls. Peripheral blood counts were determined with the VetABC analyzer (scil, Viernheim, Germany). Blood smears were Wright-Giemsa stained. For the human CLL xenograft experiments eight to 14-week-old NOD.Cg-Prkdc^scid Il2rg^tm1Wjl/SzJ (NOD/scid/γc^null; NSG) mice were sublethally irradiated (3.25 Gy) 24 hours before transplantation. Freshly isolated 1.0 x 10^8 PBMC suspended in 0.2 ml of RPMI were intravenously transplanted as previously described. For oral administration, LDC526 was diluted in polyethelene glycol (PEG Mn 400, Sigma-Aldrich) and administerd by gavage. Animal experiments were performed in accordance with institutional guidelines approved by the Animal Care Committee of the University Hospital Essen.
LDC526 [(3-((4-(4-fluoro-2-methoxyphenyl)-1,3,5-triazin-2-yl)amino)phenyl)methane-sulfonamide, molecular weight 389,41 g/mol, Figure 1A] was provided as powder (LDC526 synthesis, supplementary methods). For oral gavage administration LDC526 was diluted in polyethelene glycol (PEG Mn 400, Sigma-Aldrich, Munich, Germany) followed by sonication for 3 x 5 minutes with intermediate mixing.
Apoptosis and cell death were determined by using Annexin V (BD Biosciences, Heidelberg, Germany) and 4′,6-Diamidin-2-phenylindol (DAPI, Sigma-Aldrich) staining. Erythrocytes of murine peripheral blood samples were lysed with NH4Cl hypotonic solution. Single cell suspensions of murine spleens were prepared as previously described. Murine cells were stained with antibodies directed against murine CD3 (clone 145-2C11), CD5 (53-7.3) and CD19 (1D3), respectively. […]

CDK6-Cyclin D3 [2] = target: T1, CDK6-Cyclin D3 (Homo sapiens, UniProt Q00534); assay: FRET-based LANCE Ultra in vitro enzymatic kinase assay, CDK6; format: biochemical
T1 construct: purchased Carna Biosciences
T1 sequence (Q00534 whole entry): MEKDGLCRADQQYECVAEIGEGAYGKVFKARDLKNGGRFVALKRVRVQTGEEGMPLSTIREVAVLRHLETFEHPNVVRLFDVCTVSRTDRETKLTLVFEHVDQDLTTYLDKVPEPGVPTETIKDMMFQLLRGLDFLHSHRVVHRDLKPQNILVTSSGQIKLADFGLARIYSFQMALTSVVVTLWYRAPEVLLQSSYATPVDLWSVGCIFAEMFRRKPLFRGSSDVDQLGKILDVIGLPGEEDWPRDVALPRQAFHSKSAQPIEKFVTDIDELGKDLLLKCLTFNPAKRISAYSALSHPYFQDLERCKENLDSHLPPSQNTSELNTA
T1 sequence (P30281 whole entry partner): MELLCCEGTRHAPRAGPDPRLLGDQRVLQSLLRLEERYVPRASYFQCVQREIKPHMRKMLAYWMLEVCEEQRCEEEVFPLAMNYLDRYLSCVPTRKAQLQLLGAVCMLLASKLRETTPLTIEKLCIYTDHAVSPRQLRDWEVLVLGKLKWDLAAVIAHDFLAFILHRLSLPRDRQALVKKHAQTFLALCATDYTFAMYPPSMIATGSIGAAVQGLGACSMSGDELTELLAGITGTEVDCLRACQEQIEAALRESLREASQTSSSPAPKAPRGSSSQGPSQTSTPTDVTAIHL
Procedure: (§1) IC50 values for CDK inhibitors were determined using the fluorescence resonance energy transfer (FRET)-based LANCE Ultra KinaSelect Ser/Thr kit (Perkin Elmer). Kinase activity and inhibition were measured according to the manufacturer’s instructions and as previously described. […] FRET signals were recorded in a time-resolved manner in a Perkin Elmer EnVision reader. Purified cyclin-kinase pairs were obtained from the following suppliers: Carna Biosciences (CDK1-Cyclin B1, CDK6-Cyclin D3, CDK7-Cyclin H-MAT1), ProQinase (CDK2-Cyclin A) and Invitrogen (CDK9-Cyclin T1).
(§2) Data were analyzed with GraphPad Prism 7 software. Differences were assessed by unpaired or paired Student t tests if not indicated otherwise. Two-sided probabilities of less than 0.05 were considered significant. Nonlinear regression sigmoidal dose-response curve fit was used to determine the IC50 values and to generate graphs.

CDK6-Cyclin D3 [3] = assay: as above; format: biochemical
Procedure: as §1, §2

[4] = 75 mg/kg, day 21, representative plot

With `COc1cc(F)ccc1-c1ncnc(Nc2cccc(CS(N)(=O)=O)c2)n1` [LDC526, (3-((4-(4-fluoro-2-methoxyphenyl)-1,3,5-triazin-2-yl)amino)phenyl)methane-sulfonamide] the “reduction of human CLL cells in NSG spleens compared to carrier control” value ([1]; 75 mg/kg for 5 days) was 77%, the mean weight loss ([1]; day 16) was 1.8% and the mean weight loss ([1]; day 21) was 3.6%. For the same molecule, the “flow cytometry gate huCD4, NSG spleen T cells” value [1, 4] was 81.2, the “flow cytometry gate huCD8, NSG spleen T cells” value [1, 4] was 14.7 and the “flow cytometry gate huCD45+ huCD3, NSG spleen” value [1, 4] was 38.7. For the same molecule, the “numbers of splenic human T cells” value ([1]; 50 and 75 mg/kg, 3 or 5 days) was “significantly reduced at both LDC526 doses”, the IC50 (CDK6-Cyclin D3 [2]) was greater than 10 µM and the “selectivity versus CDK9 compared to CDK6” value (CDK6-Cyclin D3 [3]) was greater than 900 fold.
